# Experimental data from patent US20050026189A1, “Microbial operons” (priority 2003, published 2005).
# Assays:
# [1] = tested on: E. coli transcribing IPTG-inducible antisense clones; experiment: Cell-based assay: antibiotic sensitivity of E. coli transcribing antisense to ribosomal protein genes or to genes not involved in protein synthesis (FIGS. 8, 9); set-up: species or system Escherichia coli
# From the text: The effectiveness of the above cell-based assay was validated using constructs transcribing antisense RNA to the proliferation required Escherichia coli genes rplL, rplJ, and rplW encoding ribosomal proteins L7/L12, L10 and L23 respectively. These proteins are essential components of the protein synthesis apparatus of the cell and as such are required for proliferation. These constructs were used to test the effect of antisense transcription on cell sensitivity to antibiotics known to bind to the ribosome and thereby inhibit protein synthesis. Constructs transcribing antisense RNA to several other genes (elaD, visC, yohH, and atpE/B), the products of which are not involved in protein synthesis were used for comparison. […]
# The cell populations containing vectors producing AS-elaD or AS-rplW were exposed to a range of IPTG concentrations in liquid medium to obtain the growth inhibitory dose curve for each clone (FIG. 7). First, seed cultures were grown to a particular turbidity measured by the optical density (OD) of the growth solution. […] The cells were grown for up to 15 hours and the extent of growth was determined by measuring the optical density of the cultures at 600 nm. […]
# [2] = tested on: E. coli transcribing antisense RNA to rplL and rplJ (AS-rplL/J); experiment: microbe, parasite or virus in culture; format: cell-based; details: for Fold Increase in Sensitivity: IC50 without IPTG versus IC50 with 400 μM IPTG; for Sensitivity Increased?: statistically significant decrease in the IC50 value in the presence of inducer (IPTG)
# Experimental: The effectiveness of the above assays was validated using proliferation-required genes from E. coli which were identified using procedures similar to those described above. Antibiotics of various chemical classes and modes of action were purchased from Sigma Chemicals (St. Louis, Mo.). Stock solutions were prepared by dissolving each antibiotic in an appropriate aqueous solution based on information provided by the manufacturer. The final working solution of each antibiotic contained no more than 0.2% (w/v) of any organic solvent. To determine their potency against a bacterial strain engineered for transcription of an antisense comprising a nucleotide sequence complementary to a proliferation-required 50S ribosomal protein, each antibiotic was serially diluted two- or three-fold in growth medium supplemented with the appropriate antibiotic for maintenance of the antisense construct. At least ten dilutions were prepared for each antibiotic. 25 μL aliquots of each dilution were transferred to discrete wells of a 384-well microplate (the assay plate) using a multi-channel pipette. Quadruplicate wells were used for each dilution of an antibiotic under each treatment condition (plus and minus inducer). Each assay plate contained twenty wells for cell growth controls (growth medium replacing antibiotic), ten wells for each treatment (plus and minus inducer, in this example IPTG). Assay plates were usually divided into the two treatments: half the plate containing induced cells and an appropriate concentrations of inducer (in this example IPTG) to maintain the state of induction, the other half containing non-induced cells in the absence of IPTG.
# Cells for the assay were prepared as follows. Bacterial cells containing a construct, from which transcription of antisense nucleic acid comprising a nucleotide sequence complementary to rplL and rplJ (AS-rplL/J), which encode proliferation-required 50S ribosomal subunit proteins, is inducible in the presence of IPTG, were grown into exponential growth (OD600 0.2 to 0.3) and then diluted 1:100 into fresh medium containing either 400 μM or 0 μM inducer (IPTG). These cultures were incubated at 37° C. for 2.5 hr. After a 2.5 hr incubation, induced and non-induced cells were respectively diluted into an assay medium at a final OD600 value of 0.0004. The medium contained an appropriate concentration of the antibiotic for the maintenance of the antisense construct. In addition, the medium used to dilute induced cells was supplemented with 800 μM IPTG so that addition to the assay plate would result in a final IPTG concentration of 400 μM. Induced and non-induced cell suspensions were dispensed (25 μl/well) into the appropriate wells of the assay plate as discussed previously. The plate was then loaded into a plate reader, incubated at constant temperature, and cell growth was monitored in each well by the measurement of light scattering at 595 nm. Growth was monitored every 5 minutes until the cell culture attained a stationary growth phase. For each concentration of antibiotic, a percentage inhibition of growth was calculated at the time point corresponding to mid-exponential growth for the associated control wells (no antibiotic, plus or minus IPTG). For each antibiotic and condition (plus or minus IPTG), a plot of percent inhibition versus log of antibiotic concentration was generated and the IC50 determined.
Compound,sensitivity to antibiotics which do not inhibit protein synthesis ([1]; clone transcribing antisense to rplL and rplJ (AS-rplL/J)),Fold Increase in Sensitivity [2] [Fold],Sensitivity Increased? [2],"sensitivity to erythromycin ([1]; initial experiments, clones transcribing antisense to protein synthesis genes (L7/L12 & L10, L7/L12 alone, L22, L18, rRNA, Elongation Factor G))"
CCn1cc(C(=O)O)c(=O)c2ccc(C)nc21 [Nalidixic acid],does not show increased sensitivity,1,No,–
CC[C@H]1OC(=O)[C@H](C)[C@@H](O[C@H]2C[C@@](C)(OC)[C@@H](O)[C@H](C)O2)[C@H](C)[C@@H](O[C@@H]2O[C@H](C)C[C@H](N(C)C)[C@H]2O)[C@](C)(O)C[C@@H](C)C(=O)[C@H](C)[C@@H](O)[C@]1(C)O [Erythromycin],–,40,Yes,increased sensitivity
